Where “and” joins values, the source holds several entries; their conditions need not be identical. Equal entries are not always repeated. Where two headings read alike, the source gives them in different places.

Assay [1] deals with T1, human α4β2δ GABAA receptors (Homo sapiens, UniProt P47870+P48169).
T1 construct: expressed in transfected cells; host or cells: Xenopus laevis oocytes injected with cRNA, 5:1:5 (α4:β2:δ)
In words: two-electrode voltage clamp of α4β2δ GABAA receptors expressed in Xenopus laevis oocytes (RAD model analysis). It counts as cell-based. The following applies: for EC50: Hill equation; for EC50 / Hill coefficient: mean ± S.D.; for Q (=A/D), equilibrium between active and desensitized states: steady-state currents fitted to Eq. (2), K and c constrained to peak values; for maximal peak open probability (POpen,peak): theoretical/predicted maximum from L, c and N; for calculated steady-state POpen: Eq. (4); for contribution towards stabilization of the open state: N×RT×ln(c), GABA 2 sites, propofol 4 sites. As to the method:
The human α4β2δ GABAA receptors were expressed in Xenopus laevis oocytes. Harvesting of oocytes was conducted under the Guide for the Care and Use of Laboratory Animals as adopted and promulgated by the National Institutes of Health. The animal protocol was approved by the Animal Studies Committee of Washington University in St. Louis (Approval No. 20170071).
The cDNAs of individual subunits in the pcDNA3 vector were linearized with Xba I (NEB Labs, Ipswich, MA). The cRNAs were generated using mMessage mMachine (Ambion, Austin, TX). The oocytes were injected with a total of 11 ng cRNA per oocyte in a 5:1:5 (α4:β2:δ) ratio. Following injection, the oocytes were incubated in bath solution (96 mM NaCl, 2 mM KCl, 1.8 mM CaCl2, 1 mM MgCl2, and 5 mM HEPES; pH 7.4) plus supplements (2.5 mM Na pyruvate, 100 U/ml penicillin, 100 μg/ml streptomycin, and 50 μg/ml gentamycin) at 15 °C for 3–4 days prior to conducting electrophysiological recordings.
The recordings were conducted at room temperature using standard two-electrode voltage clamp. The pipets were filled with 3 M KCl. The oocytes were clamped at −60 mV. The chamber (RC-1Z, Warner Instruments, Hamden, CT) was perfused with bath solution (see above) at 5–8 ml/min. Solutions were gravity-applied from 30-ml glass syringes with glass luer slips via Teflon tubing, and switched manually.
The current responses were amplified with an Axoclamp 900A (Molecular Devices, Sunnyvale, CA) or OC-725C amplifier (Warner Instruments, Hamden, CT), digitized with a Digidata 1320 or 1200 series digitizer (Molecular Devices), and stored using pClamp (Molecular Devices).
In such cases, the number of cell provided is given as a range of cell numbers for each concentration point. […] The level of constitutive activity was determined by exposing the cells to 100–300 μM picrotoxin.
The current traces were analyzed using Clampfit (Molecular Devices) to determine the amplitudes of peak and steady-state responses. If steady-state (defined as ΔI < 2% during the last 20 s of agonist application) was not reached by the end of the agonist application, an estimate was made by exponential fitting of the current decay. Fitting was done using pClamp, to a single exponential or sums of up to three exponentials. The constant offset is reported as the steady-state response.

For assay [2], the system named is receptors resulting from the expression of α4, β (β2 or β3), and δ subunits. The following applies: cited from earlier work.
The subject of assay [3] is α1β2γ2L GABAA receptor. To be noted: cited from earlier work.
Assay [4] concerns the target α4β3δ receptors. The following applies: oocytes, cited from earlier work.
The target of assay [5] is T2, α4β2δ receptor with β2(Y205S) mutation (Homo sapiens, UniProt P47870+P48169, Y229S).
T2 construct: expressed in transfected cells; host or cells: Xenopus laevis oocytes (inferred from the Methods on α4β2δ)
T2 sequence (P48169 36-554): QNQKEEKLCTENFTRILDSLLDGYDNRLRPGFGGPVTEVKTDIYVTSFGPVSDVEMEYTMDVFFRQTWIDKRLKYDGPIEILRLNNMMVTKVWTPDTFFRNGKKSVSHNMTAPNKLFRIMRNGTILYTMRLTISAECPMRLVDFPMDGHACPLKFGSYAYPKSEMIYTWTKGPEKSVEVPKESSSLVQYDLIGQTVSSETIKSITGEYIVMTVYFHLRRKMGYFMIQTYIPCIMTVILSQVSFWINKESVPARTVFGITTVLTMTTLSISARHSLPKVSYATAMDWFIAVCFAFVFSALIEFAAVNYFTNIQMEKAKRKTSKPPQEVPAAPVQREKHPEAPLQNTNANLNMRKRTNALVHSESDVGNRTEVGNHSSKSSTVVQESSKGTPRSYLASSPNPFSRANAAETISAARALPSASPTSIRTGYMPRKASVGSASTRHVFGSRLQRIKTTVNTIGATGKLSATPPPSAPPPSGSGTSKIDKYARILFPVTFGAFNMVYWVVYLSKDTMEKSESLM
T2 sequence (P47870 25-512 Y229S limits assumed): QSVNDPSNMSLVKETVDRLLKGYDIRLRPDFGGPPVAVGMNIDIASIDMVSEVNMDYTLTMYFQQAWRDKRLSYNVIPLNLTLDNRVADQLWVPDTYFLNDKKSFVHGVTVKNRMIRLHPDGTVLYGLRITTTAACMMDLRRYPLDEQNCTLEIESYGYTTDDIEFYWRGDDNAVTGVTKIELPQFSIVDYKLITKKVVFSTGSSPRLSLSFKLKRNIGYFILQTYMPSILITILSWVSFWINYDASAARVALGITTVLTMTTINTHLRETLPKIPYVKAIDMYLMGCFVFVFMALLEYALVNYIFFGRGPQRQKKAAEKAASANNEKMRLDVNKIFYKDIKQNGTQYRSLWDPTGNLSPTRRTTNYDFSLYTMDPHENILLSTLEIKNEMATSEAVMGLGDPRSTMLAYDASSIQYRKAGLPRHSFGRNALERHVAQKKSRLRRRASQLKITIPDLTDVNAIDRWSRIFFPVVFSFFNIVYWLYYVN
T2 sequence (O14764 25-452 partner): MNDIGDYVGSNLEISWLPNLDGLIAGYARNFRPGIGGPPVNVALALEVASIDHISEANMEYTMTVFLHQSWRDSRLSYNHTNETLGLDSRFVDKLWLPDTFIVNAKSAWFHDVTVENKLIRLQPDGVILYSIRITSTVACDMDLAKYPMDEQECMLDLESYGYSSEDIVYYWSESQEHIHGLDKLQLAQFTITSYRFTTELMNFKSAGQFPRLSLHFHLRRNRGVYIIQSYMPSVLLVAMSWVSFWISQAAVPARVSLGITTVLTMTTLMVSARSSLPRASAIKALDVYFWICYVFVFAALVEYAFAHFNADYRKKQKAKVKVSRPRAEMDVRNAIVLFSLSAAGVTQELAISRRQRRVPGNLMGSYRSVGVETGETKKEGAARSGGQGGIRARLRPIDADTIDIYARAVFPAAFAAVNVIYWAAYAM
In words: activation of α4β2δ receptor carrying the β2(Y205S) mutation. The following applies: data not shown. It counts as cell-based.

The target in assay [6] is α1β2γ2L receptor with β2(Y205S) mutation (Homo sapiens, UniProt P14867+P47870, Y229S). The assay is described as follows: activation of α1β2γ2L receptor carrying the β2(Y205S) mutation. It counts as cell-based. The following applies: data not shown.
Chain of α1β2γ2L receptor with β2(Y205S) mutation (P14867 28-456): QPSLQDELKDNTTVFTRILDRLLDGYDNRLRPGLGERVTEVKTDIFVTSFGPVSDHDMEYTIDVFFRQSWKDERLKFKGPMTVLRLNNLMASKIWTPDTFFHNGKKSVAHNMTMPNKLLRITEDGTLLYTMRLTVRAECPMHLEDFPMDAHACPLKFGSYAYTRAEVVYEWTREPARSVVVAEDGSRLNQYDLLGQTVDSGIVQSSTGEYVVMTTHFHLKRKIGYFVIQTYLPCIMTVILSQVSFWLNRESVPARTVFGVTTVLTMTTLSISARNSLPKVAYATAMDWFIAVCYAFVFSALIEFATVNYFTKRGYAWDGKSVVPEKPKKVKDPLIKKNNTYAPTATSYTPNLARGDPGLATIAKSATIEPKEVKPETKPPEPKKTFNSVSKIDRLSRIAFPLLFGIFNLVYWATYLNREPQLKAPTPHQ
Chain of α1β2γ2L receptor with β2(Y205S) mutation (P47870 25-512 Y229S limits assumed): as the sequence (P47870 25-512 Y229S limits assumed) above
Chain of α1β2γ2L receptor with β2(Y205S) mutation (P18507 40-475 partner): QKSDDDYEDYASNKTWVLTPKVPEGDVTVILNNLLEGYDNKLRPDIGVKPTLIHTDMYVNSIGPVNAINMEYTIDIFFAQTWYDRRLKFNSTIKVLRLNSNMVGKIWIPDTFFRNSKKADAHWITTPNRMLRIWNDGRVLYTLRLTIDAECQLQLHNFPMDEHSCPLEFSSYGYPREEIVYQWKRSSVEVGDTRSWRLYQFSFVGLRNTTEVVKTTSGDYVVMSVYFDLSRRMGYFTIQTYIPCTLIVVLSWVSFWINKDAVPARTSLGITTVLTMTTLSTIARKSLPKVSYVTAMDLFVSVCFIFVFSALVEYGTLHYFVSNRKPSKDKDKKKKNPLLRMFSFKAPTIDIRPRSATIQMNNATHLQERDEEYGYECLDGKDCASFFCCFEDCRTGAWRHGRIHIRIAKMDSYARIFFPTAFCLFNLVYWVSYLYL
Setting [7] is: peak currents fitted to Eq. (1).

T1 sequence (P48169 36-554): as the sequence (P48169 36-554) above
T1 sequence (P47870 25-512 limits assumed): as the sequence (P47870 25-512 Y229S limits assumed) above, with S205Y counted along it
T1 sequence (O14764 25-452 partner): as the sequence (O14764 25-452 partner) above

The Hill coefficient is the slope factor of the fitted curve. In the case of `CC(=O)[C@H]1CC[C@H]2[C@@H]3CC[C@H]4C[C@H](O)CC[C@]4(C)[C@H]3CC[C@]12C` [3α5αP, allopregnanolone], in assay [1], the Kd is 0.21 ± 0.04 µM; the “Q (=A/D), equilibrium between active and desensitized states” value is 0.89 ± 0.33 and 0.89; the “maximal peak open probability (POpen,peak)” value (shortened to “maximal peak open probability”) is listed as ~ 0.2. Further, the EC50 in assay [1] (EC50, peak currents) stood at 0.23 ± 0.1 µM. For the same molecule, the “cX, ratio of equilibrium dissociation constant of the open receptor to KX” value (shortened to “cX, ratio”) in assay [1] (setting [7]) worked out at 0.68 ± 0.01. Further, in assay [1] (peak currents), the Hill coefficient came to 1.17 ± 0.30. Besides, in assay [1] (listed as allopregnanolone), the “maximal peak open probability” value is 0.2.

`O=C(Nc1c(-c2cccs2)nc2ccccn12)c1ccc(Cl)cc1` [DS-2]: the “effect of DS-2” value in assay [2] (high-affinity isoform) was “directly activated”. Besides, in assay [2] (low-affinity isoform), the “effect of DS2” value was “potentiated but not directly activated”. In assay [1] (isoform investigated in the present study), the direct activation result is listed as “directly activated”.

As to `NCCCC(=O)O` [GABA], in assay [3], the “stabilization energy from binding of two GABA molecules” value is 6.4 to 7.5 kcal/mol. For the same molecule, the “calculated steady-state POpen” value in assay [1] (30 nM GABA) is recorded as 0.24. Also, the “open probability (peak)” value in assay [1] (0.3 μM GABA, relative to PTX (0) and 10 μM GABA + 50 μM propofol (1)) came to 0.35 ± 0.09. In assay [1], the “contribution towards stabilization of the open state” value is given as 0.94 kcal/mol; the “Q (=A/D), equilibrium between active and desensitized states” value was 0.78 ± 0.08 and 0.78; the “maximal peak open probability” value is 0.44 and 0.42 and 0.4 and ~ 0.4. The molecule further showed a Hill coefficient in assay [1] (peak currents) of 0.80 ± 0.09. Besides, the “steady-state open probability (POpen,S.S.)” value in assay [1] (saturating GABA) was approximately 0.3.

As to `O=c1[nH]oc2c1CCNC2` [THIP], the values for the EC50 in assay [4] (read-out: high-affinity component of concentration-response curve) and in assay [4] (read-out: low-affinity component of concentration-response curve) were less than 0.1 µM and more than 10 µM, respectively.

Take `CC(C)c1cccc(C(C)C)c1O` [propofol]: the “predicted POpen,S.S. after addition of propofol” value in assay [1] (1 μM propofol added to 30 nM GABA, 10 μM taurine, 30 nM 3α5αP, 0.1 μM PS) is 0.28. Moreover, in assay [1] (1 μM propofol, peak response), the “peak response to 0.3 μM GABA with coapplied propofol” value is on record as 151 ± 12 % of control. In assay [1] (1 μM propofol, steady-state response), the “steady-state response to 0.3 μM GABA with propofol” value is 145 ± 14 % of control. The EC50 in assay [1] (EC50, peak currents) was determined as 7.3 ± 2 µM. Moreover, in assay [1] (KX, equilibrium dissociation constant of the resting receptor, peak currents fitted to Eq. (1), best-fit ± S.E. of the fit), the Kd was 55.1 µM and > 50 µM. In assay [1], the “contribution towards stabilization of the open state” value is given as 4.3 kcal/mol; the “Q (=A/D), equilibrium between active and desensitized states” value was 1.29 ± 0.14 and 1.29; the “maximal peak open probability” value is 0.99 and ~ 0.99. In addition, the “cX, ratio” value in assay [1] (setting [7]) is 0.16 ± 0.01. The Hill coefficient in assay [1] (peak currents) turned out to be 2.17 ± 0.65.

As for `NCCS(=O)(=O)O` [taurine, 2-aminoethanesulfonic acid], the activation by taurine in assay [5] and in assay [6] was < 0.2 % of the response to GABA + propofol in each case. The “calculated steady-state POpen” value in assay [1] (10 μM taurine) was 0.21. In addition, the “Q (=A/D), calculated value” in assay [1] (calculated from steady-state open probability with 1 mM taurine) is 0.52. Also, the steady-state open probability in assay [1] (long (190–410 s) applications of 1 mM taurine) turned out to be 0.23 ± 0.04. Moreover, in assay [1] (setting [7]), the “cX, ratio” value is on record as 0.47 ± 0.02. Besides, the Kd in assay [1] (peak currents fitted to Eq. (1), best-fit ± S.E. of the fit, read-out: KX, equilibrium dissociation constant of the resting receptor) is 10 ± 2.1 µM. For the same molecule, in assay [1] (peak currents, read-out: EC50), the EC50 is 9.8 µM and 10 µM. Moreover, in assay [1] (peak currents), the Hill coefficient amounted to 0.70 ± 0.08. Further, in assay [1], the “maximal peak open probability” value was 0.44 and 0.4 and ~ 0.4.

pregnenolone sulfate [PS]: the dPS in assay [3] was 0.11. In addition, the Kd in assay [3] (read-out: KPS) was 1.9 µM. Also, the “dPS, ratio of equilibrium dissociation constant of the desensitized receptor to KPS” value in assay [1] (fit to Eq. (3), 0.3 μM GABA, 1 site) was 0.14 ± 0.02. The high concentration asymptote in assay [1] (steady-state current elicited by 0.3 μM GABA) is on record as 50 ± 4 % of control.

Values taken from publication PMC6831628, “Steady-state activation of the high-affinity isoform of the α4β2δ GABAA receptor” (Scientific Reports, 2019).
